Patent US20190038723A1, “Inhibiting UVB-Irradiation Damage By Targeting Nitric Oxide Synthases (cNOS)” (priority 2016, published 2019)
Starred links: 1 amine or outer side, 2 acyl side, 3 side chain; linkers in the order of their positions; H or OH if unused. Positions of bridges follow the written chain, without caps; N, C: chain ends. Non-standard residues stand in square brackets, D forms with d. Residues, ends and D or L forms follow the SMILES beside them. Chains are numbered I, II in the order given. Actinocin(9to1) = Cc1c2oc3c(C)ccc(C(=O)[*:1])c3nc-2c(C(=O)[*:2])c(N)c1=O; NMeV = CN[C@H](C(=O)O)C(C)C; Sar = CNCC(=O)O

Experiments:
Assay type in all cases: cell-based, human
IKKα mRNA = test: Quantitative real-time PCR of IKKα mRNA expression after UVB; details: HaCaT pre-treated with actinomycin D 5 μg/mL, UVB 50 mJ/cm^2
Procedure: FIG. 3: Quantitative real-time PCR analysis of mRNA expression of IKKα in HaCaT human keratinocyte. The cells were pre-treated with DMSO or […] (Act.D, 5 μg/mL) and treated with of UVB (50 mJ/cm^2). The mRNA expression was normalized to GAP OH expression and depicted as fold change vs. DMSO control.

HaCaT cells [1] = test: Neutral comet assay of UVB-induced DNA damage in HaCaT cells; details: for reduction of UVB-induced DNA breakage in keratinocytes: L-NAME 1 mM, UVB 10 mJ/cm^2
Procedure: FIGS. 10A-10B: UVB-induced DNA damage in HaCaT cells. The image (FIG. 10A) was captured by Cytation 3 Imaging Analyzer (BioTek, Winooski, Vt.); and, the DNA density (FIG. 10B) was analyzed by ImageJ (Version 1.46r. NIH) with Comet Assay Plugin (Pathology & Lab Med UNC-CH). *: p-value<0.05 vs. DMSO alone; **: p-value<0.05 vs. NAME. ***: p-value<0.05 vs. UV+DMSO. The data represents an average of DNA damage analysis for more than five cells.
To assess the effect of cNOS inhibitor on UVB-induced DNA damage in keratinocutes, HaCaT cells were treated with DMSO (solvent) or L-NAME (1 mM) for 1 hour prior to UVB radiation (10 mJ/cm^2). At […] post-UVB, the cells were collected and DNA damage was determined using a neutral comet assay kit following manufacture's protocol (Trevigen, Gaithersburg, Md.).

HaCaT cells [2] = test: Soft-agar cell transformation assay after UVB; details: UVB every other day for 14 days
Procedure: FIG. 11: UVB-induced HaCaT cells transformation. The cell transformation was determined using a Transformation assay kit (Cell Biolabs, Inc.). *: p-value<0.05 vs. control. **: p-value<0.05 vs. UVB alone. The data represents an average of 3 sets of independent experiments.
To determine the chemoprevetive function of cNOS inhibitor for UVB-induced skin cell transformation, cells were treated with sham or UVB every other day for 14 days in the presence or absence of L-NAME (1 mM in media) all time. The cells were detached from plate and same amount of cells were seeded in soft-agar in 96-well microtiter plate. At day 10, the cells alone with soft-agar were solubilized in the wells using Cytoselect buffer (Cell Biolabs, Inc., San Diego, Calif.) and the amount of transformed cells was determined by fluorescence intensity using a Spectra Max M2 fluorescent platereader (Molecular Devices).

SMILES	effect on IKKα mRNA level post-UVB (IKKα mRNA)	percentage of UVB-induced tail DNA content (HaCaT cells [1]; L-NAME 1 mM for 1 hour prior to UVB 10 mJ/cm^2, cells collected at 30 mM post-UVB, UVB+DMSO 49.2%) [%]	tail DNA content, L-NAME alone (HaCaT cells [1]; L-NAME 1 mM without UVB, DMSO alone 20.7%) [%]	reduction of UVB-induced DNA breakage in keratinocytes (HaCaT cells [1]; Control = DMSO alone) [%]	reduction of UVB-induced DNA breakage in keratinocytes (HaCaT cells [1]; Control = L-NAME alone) [%]	suppression of UVB-induced transformation of keratinocytes (HaCaT cells [2]; L-NAME 1 mM in media)	reading of transformed cells (fluorescence intensity) (HaCaT cells [2]; L-NAME 1 mM in media all time, soft-agar day 10, UVB alone 3.2)
Cc1c2oc3c(C)ccc(C(=O)N[C@@H]4C(=O)N[C@H](C(C)C)C(=O)N5CCC[C@H]5C(=O)N(C)CC(=O)N(C)[C@@H](C(C)C)C(=O)O[C@@H]4C)c3nc-2c(C(=O)N[C@@H]2C(=O)N[C@H](C(C)C)C(=O)N3CCC[C@H]3C(=O)N(C)CC(=O)N(C)[C@@H](C(C)C)C(=O)O[C@@H]2C)c(N)c1=O [actinomycin D] (I: T[dV]P[Sar][NMeV] / II: T[dV]P[Sar][NMeV]; ester I:1-I:C, II:1-II:C; linker I:N-II:N via Actinocin(9to1))	does not have a statistically significant effect	–	–	–	–	–	–
COC(=O)[C@@H](N)CCCNC(=N)N[N+](=O)[O-] [L-NAME]	–	32.4	25.6	58.9	71.2	almost totally suppresses	1.3
